Some results are limits rather than exact numbers.

The results in this text go back to patent US11267824B2, “Inhibitors of indoleamine 2,3-dioxygenase and/or tryptophan 2,3-dioxygenase” (IDORSIA PHARMACEUTICALS LTD, priority 2017, dated 2022).

Assay [1] concerns the target Recombinant full-length human IDO1 (Homo sapiens (Human), UniProt P14902). Nature of the assay: IDO1 enzymatic assay (IDO inhibitory activity). In kind it is biochemical. The conditions noted are these: 2 nM enzyme, 5 μM L-tryptophan, pH6.5, 30 min pre-incubation, NFK quantified by LCMS; mean values if measured multiple times; read-out: hIDO activity (IC50 in nM). The protocol:
1) Testing Compounds for IDO Inhibitory Activity in an IDO1 Enzymatic Assay:
Recombinant full-length human IDO1 with a N-terminal hexahistidine tag expressed in E. coli and purified to homogeneity is incubated at a final concentration of 2 nM in assay buffer consisting of 37.5 mM phosphate buffer at pH6.5 supplemented with 10 mM sodium L-ascorbate, 0.45 μM methylene blue, 50 U/ml catalase, 0.01% BSA, and 0.01% Tween 20 (protocol modified from Seegers et al, JBS 2014). Example compounds are serially diluted in DMSO, further diluted in phosphate buffer, and added to the enzyme at final concentrations ranging from 10 μM to 0.5 nM. The final DMSO concentration is 0.6%. Following a pre-incubation of 30 minutes at RT, the reaction is started by the addition of L-tryptophan at a final concentration of 5 μM in assay buffer. After 30 minutes of incubation at RT, 3 μL of the reaction mixture are transferred to a 384 deep well plate containing 25 μL of deionized water. 100 μl of 200 nM L-Tryptophan-(indole-d5) in cold 100% methanol are added followed by a 10 minutes centrifugation at 4,000 rpm at 4° C. An additional 75 μL of deionized water are then added and followed by a 10 minutes centrifugation at 4,000 rpm at 4° C. The product of the reaction N′-Formylkynurenine (NFK) is quantified by LCMS and normalized to the L-Tryptophan-(indole-d5) signal. Samples with 0.6% DMSO (0% effect) and a TDO/IDO inhibitor (100% effect) are used as control samples to set the parameters for the non-linear regression necessary for the determination of the half-maximal inhibitory concentration (IC50) for each compound. For each compound concentration the percentage of activity compared to 0% and 100% effect is calculated as average ±STDEV (each concentration measured in duplicate). IC50 values and curves are generated with XLfit software (IDBS) using Dose-Response One Site model 203 (four parameter logistic curve model). When compounds are measured multiple times, mean values are given.

The target in assay [2] is Recombinant human TDO comprising amino acids 19-407 (Homo sapiens (Human), UniProt P48775). Nature of the assay: TDO2 enzymatic assay (TDO inhibitory activity). In kind it is biochemical. The settings on record: 15 nM enzyme, 200 μM L-tryptophan, pH7, 30 min pre-incubation, NFK quantified by LCMS; mean values if measured multiple times; read-out: hTDO activity (IC50 in nM). The protocol: 2) Testing Compounds for TDO Inhibitory Activity in a TDO2 Enzymatic Assay:
Recombinant human TDO comprising amino acids 19-407 with a N-terminal hexahistidine tag expressed in E. coli and purified to homogeneity is incubated at a final concentration of 15 nM in assay buffer consisting of 75 mM phosphate buffer at pH7 supplemented with 100 μM ascorbic acid, 50 U/ml Catalase, 0.01% BSA, and 0.01% Tween 20 (protocol modified from Seegers et al, JBS 2014). Example compounds are serially diluted in DMSO, further diluted in phosphate buffer, and added to the reaction mixture at final concentrations ranging from 10 μM to 0.5 nM. The final DMSO concentration is 0.6%. Following a pre-incubation of 30 minutes at RT, the reaction is started by the addition of L-tryptophan at a final concentration of 200 μM in assay buffer. After 30 minutes of incubation at RT, 3 μL of the reaction mixture are transferred to a 384 deep well plate containing 25 μL of deionized water. 100 μl of 200 nM L-Tryptophan-(indole-d5) in cold 100% methanol are added followed by a 10 minutes centrifugation at 4,000 rpm at 4° C. An additional 75 μL of deionized water are then added and followed by a 10 minutes centrifugation at 4,000 rpm at 4° C. The product of the reaction N′-Formylkynurenine (NFK) is quantified by LCMS and normalized to the L-Tryptophan-(indole-d5) signal. Samples with 0.6% DMSO (0% effect) and a TDO/IDO inhibitor (100% effect) are used as control samples to set the parameters for the non-linear regression necessary for the determination of the half-maximal inhibitory concentration (IC50) for each compound. For each compound concentration the percentage of activity compared to 0% and 100% effect is calculated as average±STDEV (each concentration measured in duplicate). IC50 values and curves are generated with XLfit software (IDBS) using Dose-Response One Site model 203 (four parameter logistic curve model). When compounds are measured multiple times, mean values are given.

Chain of Recombinant human TDO comprising amino acids 19-407 (P48775 19-406 limits assumed): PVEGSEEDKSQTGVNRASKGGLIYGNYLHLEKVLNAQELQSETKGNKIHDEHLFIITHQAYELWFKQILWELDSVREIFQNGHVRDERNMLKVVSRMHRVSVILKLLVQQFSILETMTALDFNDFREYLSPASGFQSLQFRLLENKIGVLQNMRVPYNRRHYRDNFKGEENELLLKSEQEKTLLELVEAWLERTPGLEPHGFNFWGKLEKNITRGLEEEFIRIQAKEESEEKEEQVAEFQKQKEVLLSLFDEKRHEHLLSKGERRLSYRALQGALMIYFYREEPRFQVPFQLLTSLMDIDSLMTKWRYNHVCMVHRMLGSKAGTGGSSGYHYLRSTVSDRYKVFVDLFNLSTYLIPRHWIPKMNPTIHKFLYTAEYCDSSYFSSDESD
Chain of Recombinant full-length human IDO1 (P14902 whole entry): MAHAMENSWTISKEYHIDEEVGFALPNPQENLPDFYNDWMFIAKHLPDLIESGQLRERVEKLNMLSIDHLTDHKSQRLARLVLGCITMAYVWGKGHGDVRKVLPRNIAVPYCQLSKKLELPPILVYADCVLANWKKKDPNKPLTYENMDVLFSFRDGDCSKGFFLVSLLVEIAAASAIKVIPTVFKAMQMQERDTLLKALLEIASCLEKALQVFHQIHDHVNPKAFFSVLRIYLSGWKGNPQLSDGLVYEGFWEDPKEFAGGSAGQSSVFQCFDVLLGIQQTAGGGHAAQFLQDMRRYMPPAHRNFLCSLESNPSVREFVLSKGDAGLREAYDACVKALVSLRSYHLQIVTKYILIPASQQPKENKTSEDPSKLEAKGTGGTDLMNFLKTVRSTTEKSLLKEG

Consider `COC1CCCC(C(O)c2c(C3CC3)sc3cncn23)C1` (stereo not shown) [Example 79, (2-Cyclopropyl-imidazo[5,1-b]thiazol-3-yl)-(3-methoxy-cyclohexyl)-methanol], for which the IC50 – broadly, the concentration at which inhibition is half-maximal – was found to be 109 nM in assay [1] and 1850 nM in assay [2].
For the compound `CCCC1CCC(CC(O)c2c(C3CC3)sc3cncn23)CC1` (racemic) [Example 150, rac-1-(2-Cyclopropyl-imidazo[5,1-b]thiazol-3-yl)-2-(4-propyl-cyclohexy-etethanol], the figures for the IC50 in assay [1] and in assay [2] were 687 nM and 3230 nM, respectively.
For `OC(c1cn(C2CCC2)nn1)c1c(C2CC2)sc2cncn12` (racemic) [Example 196, rac-(1-Cyclobutyl-1H-[1,2,3]triazol-4-yl)-(2-cyclopropyl-imidazo[5,1-b]thiazol-3-yl)-methanol], the IC50 is 183 nM in assay [1] and greater than 10200 nM in assay [2].
Turning to `CC1(C)CCCC(CC(O)c2c(C3CC3)sc3cncn23)C1` (stereo not shown) [Example 106, 1-(2-Cyclopropyl-imidazo[5,1-b]thiazol-3-yl)-2-(3,3-dimethyl-cyclohexyl)-ethanol], the IC50 in assay [1] was determined as 85.1 nM; in assay [2], 546 nM.
The corresponding values for `OC(CC1CCCCC1c1ccccc1)c1c(C2CC2)sc2cncn12` (stereo not shown) [Example 75, 1-(2-Cyclopropyl-imidazo[5,1-b]thiazol-3-yl)-2-(2-phenyl-cyclohexyl)-ethanol] are 1040 nM and 9460 nM.
The corresponding values for `CC1(C)CC[C@@H]([C@H](O)c2c(C3CC3)sc3cncn23)C1` [Example 47a, (S)-(2-Cyclopropyl-imidazo[5,1-b]thiazol-3-yl)-((R)-3,3-dimethyl-cyclopentyl)-methanol] are 15 nM and 328 nM.
For the compound `OC(c1cn(C2CCCC2)nn1)c1c(C2CC2)sc2cncn12` (racemic) [Example 195, rac-(1-Cyclopentyl-1H-[1,2,3]triazol-4-yl)-(2-cyclopropyl-imidazo[5,1-b]thiazol-3-yl)-methanol], the IC50 is 96.1 nM in assay [1] and greater than 10200 nM in assay [2].
Take `Cc1sc2cncn2c1C(O)C1CCN(c2ccccc2)CC1` (racemic) [Example 169, rac-(2-Methyl-imidazo[5,1-b]thiazol-3-yl)-(1-phenyl-piperidin-4-yl)-methanol]: the IC50 in assay [1] stood at 537 nM; in assay [2], 3960 nM.
For `Cc1sc2cncn2c1[C@@H](O)C1CCCCC1` [Example 6a, (S)-Cyclohexyl-(2-methyl-imidazo[5,1-b]thiazol-3-yl)-methanol], in that order: 37.3 nM and 60.4 nM.
As to `OC(CC1CCC(F)(F)CC1)c1c(C2CC2)sc2cncn12` (racemic) [Example 71, rac-1-(2-Cyclopropyl-imidazo[5,1-b]thiazol-3-yl)-2-(4,4-difluoro-cyclohexyl)-ethanol], the figures for the IC50 in assay [1] and in assay [2] were 28.5 nM and 263 nM, respectively.
`OC(c1c(C2CC2)sc2cncn12)C1CCC1` (racemic) [Example 43, rac-Cyclobutyl-(2-cyclopropyl-imidazo[5,1-b]thiazol-3-yl)-methanol]: the values for the IC50 in assay [1] and in assay [2] were 25.1 nM and 907 nM, respectively.
For `OC(CC1CCCCC1)c1c(Cl)sc2cncn12` (racemic) [Example 16, rac-1-(2-Chloro-imidazo[5,1-b]thiazol-3-yl)-2-cyclohexyl-ethanol], the IC50 in assay [1] turned out to be 159 nM; in assay [2], 1210 nM.
Turning to `OC(c1c(C2CC2)sc2cncn12)C1CCCC1Cc1ccccc1` (stereo not shown) [Example 91, (2-Benzyl-cyclopentyl)-(2-cyclopropyl-imidazo[5,1-b]thiazol-3-yl)-methanol], the IC50 in assay [1] was found to be 288 nM; in assay [2] it was 1640 nM.
For `CCc1sc2cncn2c1C(O)C1(C)CCCCC1` (racemic) [Example 175, rac-(2-Ethyl-imidazo[5,1-b]thiazol-3-yl)-(1-methyl-cyclohexyl)-methanol], in that order: 7.04 nM and 66.8 nM.
The corresponding values for `OC(c1cccs1)c1c(Cl)sc2cncn12` (racemic) [Example 15, rac-(2-Chloro-imidazo[5,1-b]thiazol-3-yl)-thiophen-2-yl-methanol] are 333 nM and 690 nM.
The corresponding values for `CC1(C)CCC(C[C@H](O)c2c(C3CC3)sc3cncn23)C1` (stereo partly drawn) [Example 34a, (S)-1-(2-Cyclopropyl-imidazo[5,1-b]thiazol-3-yl)-2-(3,3-dimethyl-cyclopentyl)-ethanol] are 19.5 nM and 262 nM.
For the compound `OC(c1cccs1)c1c(Br)sc2cncn12` (racemic) [Example 32, rac-(2-Bromo-imidazo[5,1-b]thiazol-3-yl)-thiophen-2-yl-methanol], the values for the IC50 in assay [1] and in assay [2] were 63.4 nM and 643 nM, respectively.
For `COc1cccc(CC(O)c2c(C)sc3cncn23)c1` (racemic) [Example 62, rac-2-(3-Methoxy-phenyl)-1-(2-methyl-imidazo[5,1-b]thiazol-3-yl)-ethanol], in that order: 3150 nM and 7160 nM.
On to `OC(CC12CCC(CC1)C2)c1c(C2CC2)sc2cncn12` (racemic) [Example 22, rac-2-Bicyclo[2.2.1]hept-1-yl-1-(2-cyclopropyl-imidazo[5,1-b]thiazol-3-yl)-ethanol], for which the IC50 in assay [1] came to 33.7 nM; in assay [2], 177 nM.
On to `CC1(C(O)c2c(C3CC3)sc3cncn23)CCCCC1` (racemic) [Example 105, rac-(2-Cyclopropyl-imidazo[5,1-b]thiazol-3-yl)-(1-methyl-cyclohexyl)-methanol], for which the IC50 was 10.6 nM in assay [1] and 104 nM in assay [2].
For `OC(CC1CCCCCC1)c1c(C2CC2)sc2cncn12` (racemic) [Example 28, rac-2-Cycloheptyl-1-(2-cyclopropyl-imidazo[5,1-b]thiazol-3-yl)-ethanol], in that order: 24.3 nM and 470 nM.
The corresponding values for `Cc1sc2cncn2c1C(O)c1cccs1` (racemic) [Example 57, rac-(2-Methyl-imidazo[5,1-b]thiazol-3-yl)-thiophen-2-yl-methanol] are 433 nM and 829 nM.
As for `CC1CCCCC1CC(O)c1c(C(F)(F)F)sc2cncn12` (stereo not shown) [Example 117, 2-(2-Methyl-cyclohexyl)-1-(2-trifluoromethyl-imidazo[5,1-b]thiazol-3-yl)-ethanol], the IC50 in assay [1] stood at 165 nM; in assay [2], 2680 nM.
For `OC(CC1CC2C=CC1C2)c1c(C2CC2)sc2cncn12` (stereo not shown) [Example 38, 2-Bicyclo[2.2.1]hept-5-en-2-yl-1-(2-cyclopropyl-imidazo[5,1-b]thiazol-3-yl)-ethanol], in that order: 22.6 nM and 191 nM.
The corresponding values for `O[C@H](c1c(Cl)sc2cncn12)C1CCCCC1` [Example 13a, (S)-(2-Chloroimidazo[5,1-b]thiazol-3-yl)(cyclohexyl)methanol] are 93 nM and 162 nM.
For `CCc1sc2cncn2c1C(O)CC1CCCC1` (racemic) [Example 179, rac-2-Cyclopentyl-1-(2-ethyl-imidazo[5,1-b]thiazol-3-yl)-ethanol], in that order: 28.9 nM and 203 nM.
